Data taken from PubChem BioAssay AID2060490 (Molecular Pharmacology Branch, DTP, NCI, 2025).

Tested on: 885512-296-R-J2-PDC complex spheroid viability
Assay: Anticancer human tumor 885512-296-R-J2-PDC patient-derived breast carcinoma cell line growth inhibition [GQUAD]
Details: for IC50: curve of first compound; for viability, T/C: stronger effect = lower value
Outline: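 Viability of tumor cells grown as complex spheroids with endothelial and stromal cells, exposed to drug combinations. Top concentration at or near clinical Cmax (else 10 microM), diluted in half-log increments.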

[1] = second compound 0.0316 µM, first compound 0.0316 µM
[2] = second compound 0.0316 µM, first compound 0.1 µM
[3] = second compound 0.0316 µM, first compound 0.316 µM
[4] = second compound 0.0316 µM, first compound 1 µM
[5] = second compound 0.0316 µM, first compound 3.16 µM
[6] = second compound 0.0316 µM, first compound 10 µM
[7] = second compound 0.1 µM, first compound 0.0316 µM
[8] = second compound 0.1 µM, first compound 0.1 µM
[9] = second compound 0.1 µM, first compound 0.316 µM
[10] = second compound 0.1 µM, first compound 1 µM
[11] = second compound 0.1 µM, first compound 3.16 µM
[12] = second compound 0.1 µM, first compound 10 µM
[13] = second compound 0.316 µM, first compound 0.0316 µM
[14] = second compound 0.316 µM, first compound 0.1 µM
[15] = second compound 0.316 µM, first compound 0.316 µM
[16] = second compound 0.316 µM, first compound 1 µM
[17] = second compound 0.316 µM, first compound 3.16 µM
[18] = second compound 0.316 µM, first compound 10 µM
[19] = second compound 1 µM, first compound 0.0316 µM
[20] = second compound 1 µM, first compound 0.1 µM
[21] = second compound 1 µM, first compound 0.316 µM
[22] = second compound 1 µM, first compound 1 µM
[23] = second compound 1 µM, first compound 3.16 µM
[24] = second compound 1 µM, first compound 10 µM
[25] = second compound 3.16 µM, first compound 0.0316 µM
[26] = second compound 3.16 µM, first compound 0.1 µM
[27] = second compound 3.16 µM, first compound 0.316 µM
[28] = second compound 3.16 µM, first compound 1 µM
[29] = second compound 3.16 µM, first compound 3.16 µM
[30] = second compound 3.16 µM, first compound 10 µM
[31] = second compound 10 µM, first compound 0.0316 µM
[32] = second compound 10 µM, first compound 0.1 µM
[33] = second compound 10 µM, first compound 0.316 µM
[34] = second compound 10 µM, first compound 1 µM
[35] = second compound 10 µM, first compound 3.16 µM
[36] = second compound 10 µM, first compound 10 µM
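Further: spheroids exposed to the compounds for one week.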
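Wherever viability, T/C is given: percent of tumor spheroid viability relative to DMSO vehicle control wells.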

Molecule CC(C)n1c(=O)n(C)c2cnc3cc(F)c(-c4ccc(OCCCN5CCCCC5)nc4)cc3c21 + CN(C)c1ccc(Nc2c3ccc(NC(=O)CCN4CCCC4)cc3nc3cc(NC(=O)CCN4CCCC4)ccc23)cc1 has an IC50 (second compound 0.0316 µM) greater than 10000 nM, an IC50 (second compound 0.1 µM) greater than 10000 nM and an IC50 (second compound 0.316 µM) greater than 10000 nM. For the same molecule, the IC50 (second compound 1 µM) was greater than 10000 nM, the IC50 (second compound 3.16 µM) was 654 nM and the IC50 (second compound 10 µM) was less than 31.6 nM. It also gave a viability, T/C [1] of 89.9%, a viability, T/C [2] of 81.4% and a viability, T/C [3] of 97.1%. The viability, T/C [4] was 84.5%, the viability, T/C [5] was 118% and the viability, T/C [6] was 98.2%. The viability, T/C [7] was 81.3%, the viability, T/C [8] was 87.5% and the viability, T/C [9] was 82.2%. It also gave a viability, T/C [10] of 95.7%, a viability, T/C [11] of 108% and a viability, T/C [12] of 72.4%. For the same molecule, the viability, T/C [13] was 83.4%, the viability, T/C [14] was 69.8% and the viability, T/C [15] was 84.3%. For the same molecule, the viability, T/C [16] was 92.9%, the viability, T/C [17] was 118% and the viability, T/C [18] was 78.6%. It also gave a viability, T/C [19] of 84%, a viability, T/C [20] of 86.3% and a viability, T/C [21] of 94.5%. It also gave a viability, T/C [22] of 87.9%, a viability, T/C [23] of 94.8% and a viability, T/C [24] of 54.3%. It also gave a viability, T/C [25] of 75.3%, a viability, T/C [26] of 70.4% and a viability, T/C [27] of 52%. For the same molecule, the viability, T/C [28] was 47.5%, the viability, T/C [29] was 35.4% and the viability, T/C [30] was 18.8%. It also gave a viability, T/C [31] of 16.4%, a viability, T/C [32] of 14.6% and a viability, T/C [33] of 13.3%. For the same molecule, the viability, T/C [34] was 10.1%, the viability, T/C [35] was 9.73% and the viability, T/C [36] was 2.68%.

In the case of CC1COCCN1c1cc(-c2ccnn2C)c2ccnc(-c3ccn[nH]3)c2n1 (stereo unspecified) + CN(C)c1ccc(Nc2c3ccc(NC(=O)CCN4CCCC4)cc3nc3cc(NC(=O)CCN4CCCC4)ccc23)cc1, the IC50 (second compound 0.0316 µM) is reported as 37.2 nM, the IC50 (second compound 0.1 µM) is reported as 32.2 nM and the IC50 (second compound 0.316 µM) is reported as less than 31.6 nM. The IC50 (second compound 1 µM) was less than 31.6 nM, the IC50 (second compound 3.16 µM) was less than 31.6 nM and the IC50 (second compound 10 µM) was less than 31.6 nM. The viability, T/C [1] was 57.1%, the viability, T/C [2] was 6.61% and the viability, T/C [3] was 3.14%. The viability, T/C [4] was 3%, the viability, T/C [5] was 4.69% and the viability, T/C [6] was 8.34%. It also gave a viability, T/C [7] of 50.8%, a viability, T/C [8] of 7.66% and a viability, T/C [9] of 2.82%. The viability, T/C [10] was 3.38%, the viability, T/C [11] was 5.04% and the viability, T/C [12] was 7.27%. For the same molecule, the viability, T/C [13] was 46.7%, the viability, T/C [14] was 6.13% and the viability, T/C [15] was 3.67%. For the same molecule, the viability, T/C [16] was 3.77%, the viability, T/C [17] was 5.39% and the viability, T/C [18] was 7.84%. For the same molecule, the viability, T/C [19] was 44%, the viability, T/C [20] was 7.67% and the viability, T/C [21] was 3.43%. For the same molecule, the viability, T/C [22] was 3.61%, the viability, T/C [23] was 4.71% and the viability, T/C [24] was 8.81%. For the same molecule, the viability, T/C [25] was 27.2%, the viability, T/C [26] was 6.07% and the viability, T/C [27] was 3.25%. The viability, T/C [28] was 3.51%, the viability, T/C [29] was 5.21% and the viability, T/C [30] was 7.01%. The viability, T/C [31] was 12.7%, the viability, T/C [32] was 7.23% and the viability, T/C [33] was 4.41%. The viability, T/C [34] was 3.59%, the viability, T/C [35] was 4.61% and the viability, T/C [36] was 2.61%.

With CC1COCCN1c1cc(C2(O)CC3CCC(C2)O3)c2cnn(-c3ccn[nH]3)c2n1 (stereo unspecified) + CN(C)c1ccc(Nc2c3ccc(NC(=O)CCN4CCCC4)cc3nc3cc(NC(=O)CCN4CCCC4)ccc23)cc1 the IC50 (second compound 0.0316 µM) was less than 31.6 nM, the IC50 (second compound 0.1 µM) was less than 31.6 nM and the IC50 (second compound 0.316 µM) was less than 31.6 nM. The IC50 (second compound 1 µM) was less than 31.6 nM, the IC50 (second compound 3.16 µM) was less than 31.6 nM and the IC50 (second compound 10 µM) was less than 31.6 nM. The viability, T/C [1] was 25.4%, the viability, T/C [2] was 5.25% and the viability, T/C [3] was 3.07%. It also gave a viability, T/C [4] of 5.38%, a viability, T/C [5] of 6.51% and a viability, T/C [6] of 7.85%. The viability, T/C [7] was 30%, the viability, T/C [8] was 5.86% and the viability, T/C [9] was 3.33%. For the same molecule, the viability, T/C [10] was 4.56%, the viability, T/C [11] was 7.53% and the viability, T/C [12] was 8.91%. The viability, T/C [13] was 22.3%, the viability, T/C [14] was 6.08% and the viability, T/C [15] was 5.15%. For the same molecule, the viability, T/C [16] was 4.96%, the viability, T/C [17] was 6.17% and the viability, T/C [18] was 8.92%. It also gave a viability, T/C [19] of 29.2%, a viability, T/C [20] of 3.86% and a viability, T/C [21] of 4.06%. The viability, T/C [22] was 4.6%, the viability, T/C [23] was 6.32% and the viability, T/C [24] was 7.75%. It also gave a viability, T/C [25] of 18.8%, a viability, T/C [26] of 5.47% and a viability, T/C [27] of 3.21%. The viability, T/C [28] was 4.64%, the viability, T/C [29] was 6.84% and the viability, T/C [30] was 6.31%. For the same molecule, the viability, T/C [31] was 12.7%, the viability, T/C [32] was 4.76% and the viability, T/C [33] was 4.43%. The viability, T/C [34] was 2.68%, the viability, T/C [35] was 3.3% and the viability, T/C [36] was 1.22%.
